Where a name gives a salt, the structure may show the parent alone.
Key:
[1] = molecular target: T1, PAF receptor (Homo sapiens, UniProt P25105); assay: Inhibition of PAF-induced aggregation in human platelet rich plasma; assay type: cell-based; details: PAF challenge 1E-6M, number of experiments in parentheses
T1 construct: Blood from healthy volunteers was collected; endogenous in cells; host or cells: human platelets (healthy volunteers)
Protocol: (§1) Test compounds were evaluated as PAF receptor antagonists in vitro by measuring inhibition of PAF (platelet activating factor) induced platelet aggregation. Platelet aggregation was measured by a modification of the method described in A. Wissner, et. al., J. Med. Chem., 27, 1174, 1984.
(§2) L-PAF was obtained from Calbiochem. A stock solution of 1-2 E-3M was prepared in 10% ethanol in water or 100% methanol and serial working dilutions were made using phosphate buffered saline (PBS). 1-2 E-3M stock solutions of test compounds were prepared in 100% methanol and serially diluted in PBS. All solutions were made up in plastic tubes, stored on ice and protected from heat and light. Solutions were prepared fresh or frozen at -20° C. and used within 48 hours.
(§3) Incubation mixtures consisted of 400 μl PRP, 50 μl of PBS diluent or test compound and 50 μl of PAF agonist. More specifically, 400 μl of PRP was stabilized in a cuvette for 1-2 minutes at 37° C. in the aggregometer to achieve a stable baseline, then 50 μl of PBS or test compound, was added and incubated for 5 minutes before addition of the challenge concentration of PAF (final concentration of 5E-8M or 1E-7M, as determined from the dose response curve for PAF for that experiment). Aggregation was monitored for 5 minutes. Samples containing test compound or diluent were run simultaneously for comparison. Test compounds were initially evaluated at a screening concentration of 1E-5M.
(§4) The recording equipment consisted of a dual channel Chronolog aggregometer connected to a dual channel 10 MV full scale deflection Omniscribe chart recorder (Houston Instruments). […] The bead suspension was used to set the 0% light transmission mark and clear water was used to set the 100% light transmission mark. These limits defined a full scale deflection. The aggregation traces were analyzed by a digitizing method (C. Kohler and B. Zoltan, J. Pharm. Methods, 12, 113, 1984) with x, y coordinate data stored in a computer file. A suitable program computed parameters of interest such as the magnitude of aggregation.
In some experiments, human PRP was used instead of rabbit PRP. Blood from healthy volunteers was collected in Vacutainers® containing the Na citrate diluent and processed in a manner similar to rabbit blood to obtain the PRP. For these experiments, the challenge concentration of PAF was 1E-6M.

[2] = molecular target: T2, PAF receptor (Oryctolagus cuniculus, UniProt G1TEI7); assay: Inhibition of PAF-induced aggregation in washed rabbit platelets; assay type: cell-based; details: PAF challenge 5E-9M, number of experiments in parentheses
T2 construct: endogenous in cells; host or cells: rabbit platelets (male New Zealand White)
Protocol: as §1, §2
as §3, with “More” for “Incubation mixtures consisted of 400 μl PRP, 50 μl of PBS diluent or test compound and 50 μl of PAF agonist. More”, “400 μl of PRP was stabilized in a cuvette” left out, “1E-5M. […]” for “1E-5M.”

[3] = tested on: LPS induced hypotension; assay: Endotoxin (LPS) induced hypotension in rats; assay type: in vivo, rat (male Wistar); details: anesthetized rats; 10 ug/kg intraarterially 5 minutes after LPS 15 mg/kg I.V.
Protocol: Bacterial cell wall lipopolysaccharide from E. coli strain 0111:B4 (Sigma #L-2630) was dissolved in saline at a concentration of 3.75 mg/ml and administered to rats at 15 mg/kg I.V. Test compounds were dissolved in saline at 1 mg/ml, diluted to 10 ug/ml, and injected intraarterially at 1 ml/kg (10 ug/kg). Male wistar strain rats were obtained from Charles River Labs and maintained according to ALAC standards. They were anesthetized with 30 mg/kg pentobarbital ip with supplementation as needed. The throat was opened, the left carotid artery was cannulated with PE-10 tubing and the trachea cannulated with 0.100 O.D. tubing. Ventilation was maintained by a Harvard Apparatus small animal pump at a rate sufficient to nearly abolish spontaneous respiration.

[4] = molecular target: T2, PAF receptor; assay: Inhibition of PAF-induced aggregation in rabbit platelet rich plasma; assay type: cell-based, rabbit (male New Zealand White); details: rabbit platelet rich plasma; PAF challenge 5E-8M; number of experiments in parentheses; read-out: IC50 inhibition of PAF-induced aggregation
Protocol: as §1
Approximately 120-240 ml of blood were collected by cardiac puncture from unanesthetized male New Zealand White rabbits (Whaley's Summit View Farms, Belvedere, N.J.) with the use of 3.2% sodium citrate anticoagulant (1 part of citrate/10 parts of blood). All syringes and pipets were plastic. The blood was gently mixed and immediately centrifuged at 800 rpm for 10-15 minutes at room temperature to recover the platelet rich plasma (PRP). Platelet poor plasma (PPP) was prepared by centrifuging PRP at 2800 rpm for 10 minutes at room temperature.
Dilutions (1:3000) of PRP in Isoton® diluent were made and platelet counts were determined on a Coulter Thrombocounter which was standardized with platelet reference standards (Interscience Platelet Control, Portland, Oreg.). PRP platelet counts were adjusted to approximately 400,000-500,000 platelets/μl by the addition of PPP.
as §2, §3, §4

T2 sequence (G1TEI7 1-342): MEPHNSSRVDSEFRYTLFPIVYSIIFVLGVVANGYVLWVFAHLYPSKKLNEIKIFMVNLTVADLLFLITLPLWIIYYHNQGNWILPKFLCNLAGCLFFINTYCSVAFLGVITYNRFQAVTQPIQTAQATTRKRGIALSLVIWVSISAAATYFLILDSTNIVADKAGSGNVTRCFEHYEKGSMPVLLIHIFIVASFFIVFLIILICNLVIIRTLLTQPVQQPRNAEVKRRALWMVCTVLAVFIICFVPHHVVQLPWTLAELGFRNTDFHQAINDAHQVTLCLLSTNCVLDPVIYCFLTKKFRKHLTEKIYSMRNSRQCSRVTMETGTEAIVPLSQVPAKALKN
T1 sequence (P25105 whole entry): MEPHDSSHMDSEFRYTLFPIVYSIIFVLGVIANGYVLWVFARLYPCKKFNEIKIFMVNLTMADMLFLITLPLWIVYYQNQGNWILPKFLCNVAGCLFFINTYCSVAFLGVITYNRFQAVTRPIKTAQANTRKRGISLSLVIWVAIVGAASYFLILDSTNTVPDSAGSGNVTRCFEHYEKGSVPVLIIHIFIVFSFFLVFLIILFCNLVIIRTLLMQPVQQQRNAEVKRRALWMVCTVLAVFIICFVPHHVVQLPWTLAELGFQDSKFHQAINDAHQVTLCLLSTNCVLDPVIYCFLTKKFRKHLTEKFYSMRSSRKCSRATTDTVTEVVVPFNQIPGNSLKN

CCCCCCCCCCCCCCOc1cccc(OP(=O)([O-])Oc2cccc(C[n+]3csc(C)c3)c2)c1OC [3-[[3-[[Hydroxy[2-methoxy-3-(tetradecyloxy)phenoxy]-phosphinyl]oxy]phenyl]methyl]-5-methyl-thiazolium, hydroxide, inner salt]
IC50 [1]: 31000 nM
IC50 [2]: 5.49 nM
% reversal of LPS induced hypotension (fall in mean arterial pressure) [3]: 84%
IC50 [4]: 2510 nM

Source: US5231091A, “Bis-arylphosphate ester antagonists of platelet activating factor” (priority 1992, dated 1993)
